According to US12070445B2, “System and assay for monitoring production/release of membrane-lytic toxins in bacteria and compounds for modulating same” (priority 2021, dated 2024):
“Also recorded” adds a separate entry of the source. Where a SMILES comes first, the peptide text is derived from it. Bridges are numbered along the chain shown (N, C = ends).

Columns and labels:
Format in all cases: cell-based
[1] = system: WT P. aeruginosa (PAO1-PGSC); test: Microtiter plate (96-well) vesicle lysis assay with WT P. aeruginosa; details: 10 μM OdDHL and PQS, 1 mM BHL, 200 μM 9
Experimental: (§1) Compound handling and preparation. OdDHL and BHL (Hodgkinson et al., 2011), S. aureus AIP and peptide derivatives 1-5 (Tal-Gan et al., 2013, Tal-Gan et al., 2016, Vasquez and Blackwell, 2019), and compounds 7-9 (Welsh and Blackwell, 2016a, Boursier et al., 2018, Manson et al., 2020) were synthesized using previously described methods. PQS and compound 6 were purchased from Millipore Sigma and AK Scientific respectively. Compounds were stored dry at −20° C. until needed and then dissolved in DMSO. DMSO stock solutions were prepared at concentrations that varied with compound potency and apparent solubility. Final in-well compound concentrations for 96-well vesicle lysis assays, unless noted otherwise, were: 10 μM for AIP, OdDHL, and PQS; 1 mM for BHL; 100 nM for 1-4; 10 μM for 5; 20 μM for 6; 100 μM for 7 and 8; and 200 μM for 9.
(§2) Production of phospholipid vesicles with encapsulated calcein. Large unilamellar vesicles (LUVs) were produced by adapting a freeze-thaw and vesicle extrusion procedure (Mayer et al., 1986). Briefly, stock solutions of phospholipids (DOPC, DPPC, DPPE, or cholesterol) in chloroform were mixed to the desired lipid compositions (70 mol % DOPC/30 mol % cholesterol for S. aureus vesicles or 68 mol % DPPC, 30 mol % cholesterol, 2 mol % DPPE for P. aeruginosa vesicles), and the chloroform was removed using an N2 stream or rotary evaporation followed by drying for at least one hour under vacuum. Self-quenching solutions of calcein were prepared by combining calcein and PBS or a specially prepared calcein buffer (1 mM EDTA, 10 mM Trisbase, and 100 mM NaCl; pH 8) to a calcein concentration of […]. The resulting solutions were titrated with 10 M aqueous NaOH until all calcein was dissolved and the solution reached pH 7.4 or pH 8 for PBS and the calcein buffer, respectively. The resulting calcein solutions were added to the dried phospholipid films (PBS for S. aureus formulations and the calcein buffer for the P. aeruginosa formulations) for a final lipid concentration of 5 mg/mL. The resulting lipid solutions were vortexed vigorously and briefly sonicated in a bath sonicator to form a turbid vesicle suspension. The vesicle suspensions were then freeze-thawed five times by alternately immersing them into an iPrOH/dry ice bath and a warm water bath (˜60° C.). Vesicles prepared for continuous time-course experiments were passed at least 5 times through a 100 nm polycarbonate filter using a Mini-prep extruder. Vesicles prepared for the high-throughput screen were passed through the filter 3 times. The resulting vesicles were then separated from external, unloaded calcein using a hand-packed Sephadex-G50 size exclusion chromatography column. The concentration of phospholipid in the solution was quantified using ^31P NMR (per the above protocol), and the phospholipid concentration was adjusted to 2 mM for unsaturated lipid solutions and 1 mM for saturated lipid solutions in their respective buffers. The resulting vesicles were characterized by dynamic light scattering and found to have a hydrodynamic diameter of ˜150 nm (FIGS. 3A-3C), which agrees with previous reports describing vesicle production using a similar method (Lapinski et al., 2007).
Microtiter plate vesicle lysis assays. Portions of media (2 or 10 mL) were inoculated with individual bacterial colonies and allowed to shake overnight. […]

[2] = system: S. aureus; test: S. aureus growth (OD600); details: S. aureus WT and QS mutant with vesicles, 12 hr
Experimental: Microtiter plate vesicle lysis assays. Portions of media (2 or 10 mL) were inoculated with individual bacterial colonies and allowed to shake overnight. From these overnight cultures, subcultures were prepared by diluting the cultures 1:50 (v/v) in fresh BHI for S. aureus or 1:100 (v/v) in fresh LB for P. aeruginosa. An aliquot of each subculture (178 μL) was added to 20 μL of vesicle suspension and 2 μL of compound solution (dissolved in DMSO at 100× working concentration) in a clear-bottomed, black 96-well microtiter plate (Corning 3904). For controls, DMSO (vehicle) or Triton X-100 (1% final concentration) was substituted for compound. Plate covers were coated with an aqueous solution of 0.05% Triton X-100 and 20% ethanol (Brewster, 2003) to prevent the accumulation of condensation. Plates were incubated in a Biotek Synergy 2 microplate reader running Gen5 1.05 software at 37° C. with shaking at the high-speed setting. Fluorescence (excitation 500 nm, emission 540 nm) and OD600 (absorbance at 600 nm) measurements were recorded every 15 minutes for 12 hours. All experiments were performed in technical triplicate in a single microtiter plate. Biological triplicates were then obtained over three days. GraphPad Prism software (v. 9) was used to generate curves and calculate standard error.
High-throughput screening and follow-up analysis protocols. Test compounds and positive control 1 were delivered in 2.5 nL aliquots of DMSO with an Echo 550 liquid handler (LabCyte Inc.) into black 384-well microtiter plates (Corning). All test compounds were tested at 10 μM; positive control 1 was tested at 250 nM. DMSO was used as a negative control. Overnight cultures (2 mL) of WT S. aureus (RN6390b) were grown at 37° C. with shaking at 200 rpm. These cultures were diluted 1:500 (v/v) in fresh BHI medium, at which point vesicle solutions were added to a final concentration of 1 mM phospholipid (as determined by ^31P NMR analyses). This vesicle-cell mixture was then added to the 384-well microtiter plates with a Multidrop 384 liquid-dispensing robot (Thermo Scientific) for a total volume of 50 μL per well. Plates were incubated statically for ˜24 hr at 37° C., at which point fluorescence (excitation 483, emission 530) and OD600 (absorbance at 600 nm) measurements were made using a CLARIOstarR Plus microtiter plate reader (BMG Labtech) running MARS data analysis software. Scatter plots were generated using the Collaborative Drug Discovery Vault informatics platform. […] Fluorescence (excitation 510, emission 544) and OD600 measurements were acquired with a PerkinElmer EnVision microtiter plate reader running Envision Manager software. […]

[3] = system: WT S. aureus (RN6390b); test: Microtiter plate (96-well) vesicle lysis assay with WT S. aureus; details: for calcein leakage with agr inhibitors at equivalent concentration: all compounds at 100 nM, 12 hr
Experimental: as §1, §2
Microtiter plate vesicle lysis assays. Portions of media (2 or 10 mL) were inoculated with individual bacterial colonies and allowed to shake overnight. From these overnight cultures, subcultures were prepared by diluting the cultures 1:50 (v/v) in fresh BHI for S. aureus or 1:100 (v/v) in fresh LB for P. aeruginosa. An aliquot of each subculture (178 μL) was added to 20 μL of vesicle suspension and 2 μL of compound solution (dissolved in DMSO at 100× working concentration) in a clear-bottomed, black 96-well microtiter plate (Corning 3904). For controls, DMSO (vehicle) or Triton X-100 (1% final concentration) was substituted for compound. […]

[4] = system: agr; test: agr YFP transcriptional reporter assay (S. aureus AH1677 with pDB59); details: Staphylococcus aureus
Experimental: Bacterial strains and culture. All bacteria were grown at 37° C. with 200 rpm shaking unless otherwise specified. S. aureus and P. aeruginosa were grown in BHI medium and LB medium, respectively. S. aureus AH1677 (with an agr-YFP reporter plasmid) and P. aeruginosa PAO1-PGSC (with a plasI-LVAgfp reporter plasmid) were used as QS transcriptional reporters and grown with 10 μg/mL chloramphenicol and 300 μg/mL carbenicillin, respectively. All other strains were grown without supplemental antibiotic. S. aureus RN6390b and P. aeruginosa PAO1-PGSC were used as WT strains in vesicle lysis experiments, while S. aureus RN9222 and P. aeruginosa PAO-JG35 were used as QS mutants. RN9222 was grown without antibiotic as it was not used as a reporter strain (i.e., it served only as QS mutant).
High-throughput screening and follow-up analysis protocols. Test compounds and positive control 1 were delivered in 2.5 nL aliquots of DMSO with an Echo 550 liquid handler (LabCyte Inc.) into black 384-well microtiter plates (Corning). All test compounds were tested at 10 μM; positive control 1 was tested at 250 nM. DMSO was used as a negative control. Overnight cultures (2 mL) of WT S. aureus (RN6390b) were grown at 37° C. with shaking at 200 rpm. These cultures were diluted 1:500 (v/v) in fresh BHI medium, at which point vesicle solutions were added to a final concentration of 1 mM phospholipid (as determined by ^31P NMR analyses). This vesicle-cell mixture was then added to the 384-well microtiter plates with a Multidrop 384 liquid-dispensing robot (Thermo Scientific) for a total volume of 50 μL per well. Plates were incubated statically for ˜24 hr at 37° C., at which point fluorescence (excitation 483, emission 530) and OD600 (absorbance at 600 nm) measurements were made using a CLARIOstarR Plus microtiter plate reader (BMG Labtech) running MARS data analysis software. Scatter plots were generated using the Collaborative Drug Discovery Vault informatics platform. The dose-response experiment using the vesicle lysis assay was performed in a 384-well plate in technical duplicate with compound concentrations of 0.1, 0.25, 0.5, 1, 2.5, 5, 10, and 20 μM. Dose-response curves were generated using variable slope (4 parameter) non-linear regression analysis for compound inhibition using GraphPad Prism software (v. 9). Analysis of the QS modulatory activity of the HTS hits and 6 (savirin) was performed using the S. aureus YFP transcriptional reporter strain. HTS hits were purchased directly from Life Chemicals, Inc. DMSO stock solutions (10 mM) of each compound were prepared and stored at −20° C. Serial dilutions (1:3) were prepared from the stock solutions in DMSO, and 2 μL aliquots of the resulting dilutions were added to the wells of black 96-well microtiter plates (Corning). Overnight cultures of the S. aureus reporter strain (2 mL) were grown at 37° C. with shaking at 200 rpm. Cultures were diluted 1:50 (v/v) into fresh BHI medium, and 198 μL of this diluted culture were added to each well containing compound, for a total volume of 200 μL per well. All plates contained a vehicle control consisting of 2 μL of DMSO and 198 μL of culture and a media control consisting of 200 μL BHI. Plates were incubated for ˜24 hours at 37° C. with shaking at 200 rpm. Fluorescence (excitation 510, emission 544) and OD600 measurements were acquired with a PerkinElmer EnVision microtiter plate reader running Envision Manager software. Background fluorescence from BHI control was subtracted from raw fluorescence reads, OD600 corrected, and finally normalized to vehicle control. Dose-response curves and IC50 values were generated using 3-parameter non-linear regression analysis for compound inhibition using GraphPad Prism software (v. 9). All compounds were tested in technical triplicate with at least 3 biological replicates.

Molecule | calcein leakage with agr inhibitors at equivalent concentration [3] | IC50 [4] | also measured
CCCC(=O)N[C@H]1CCOC1=O [BHL, N-butyryl-Lhomoserine lactone] | – | – | effect on vesicle lysis / dye leakage (fluorescence over 12 hr) [1]: earlier onset of dye leakage; also recorded: facilitate vesicle lysis
CC[C@H](C)[C@H](N)C(=O)N[C@@H](CC(N)=O)C(=O)N[C@H]1CSC(=O)[C@H](CC(C)C)NC(=O)[C@H](CC(C)C)NC(=O)[C@H](Cc2ccccc2)NC(=O)[C@H](C)NC1=O [Compound 1, AIP III D4A] (H-INCAFLL; thioester 3-C) | completely prevent calcein leakage | – | impact on cell growth [2]: minimal impact on cell growth; effect on vesicle lysis (calcein fluorescence over 12 hr) ([3]; 100 nM 1, 10 μM 5, 20 μM 6, 10 μM AIP): wholly abrogated vesicle lysis; also recorded: repress vesicle lysis; effect of increasing concentration on onset of calcein leakage ([3]; 3-fold dilutions starting at 100 nM): increases in the times required for the onset of calcein leakage
CCCc1cc(C(=O)O)nc2c(-c3ccccc3)c(C)nn12 [Compound 12] | – | 2.58 µM | –
Cc1nn2c(C3CC3)cc(C(=O)O)nc2c1-c1ccccc1 [Compound 13] | – | 3.35 µM | –
Cc1nn2c(C3CCC3)cc(C(=O)O)nc2c1-c1ccccc1 [Compound 14] | – | 0.98 µM | –
CCc1cc(C(=O)O)nc2c(-c3ccccc3)c(C)nn12 [Compound 15] | – | 7.67 µM | –
Cc1nn2c(C3CCCC3)cc(C(=O)O)nc2c1-c1ccccc1 [Compound 16] | – | 0.84 µM | –
Cc1nn2c(C(C)(C)C)cc(C(=O)O)nc2c1-c1ccccc1 [Compound 17] | – | 0.48 µM | –
CCCCCCCCCC(=O)CC(=O)N[C@H]1CCOC1=O [OdDHL, N-(3-oxo-dodecanoyl)-L-homoserine lactone] | – | – | effect on vesicle lysis / dye leakage (fluorescence over 12 hr) [1]: no observable influence on levels of fluorescence; also recorded: no observable effect
CCCCCCCc1[nH]c2ccccc2c(=O)c1O [PQS, Pseudomonas quinolone signal] | – | – | effect on vesicle lysis / dye leakage (fluorescence over 12 hr) [1]: no observable influence on levels of fluorescence; also recorded: no observable effect
AIP III D4A amide [Compound 2] | delayed response | – | –
tr. AIP III D2A [Compound 3] | completely prevent calcein leakage | – | –
tr. AIP III D2A amide [Compound 4] | delayed response | – | –
